Tests used:
Type in all cases: in vivo
[1] = test system: barnyardgrass (Echinochloa crus-galli); experiment: Post-emergent Test I herbicidal activity; settings: 3.96 Kg ai/ha
Method: (§1) Post-emergent Test I Seeds test species were obtained from commercial suppliers and planted into a 5″-round pot containing soil-less media mix (metro-mix 360®, Sun Gro Horticulture). Postemergence treatments were planted 8-12 days prior to application and cultured in a greenhouse equipped with supplemental light sources to provide a 16 h photoperiod at 24-29° C. All pots were surface irrigated. Approximately 10 milligrams (mg) of each compound were dissolved in 1.3 mL acetone-DMSO (97:3, v/v) and diluted with 4.1 mL water-isopropanol-crop oil concentrate (78:20:2, v/v/v) containing 0.02% Triton X-155. Treatments were serial diluted with the above formulation solvent to provide 1.85, 0.926, 0.462 and 0.231 mg/mL of test compound delivered in 2.7 mL/pot (roughly equivalent to 4.0, 2.0, 1.0, and 0.5 kg/ha, respectively). Formulated compounds were applied using a DeVilbiss® compressed air sprayer at 2-4 psi. Following treatment, pots were returned to the greenhouse for the duration of the experiment. All pots were sub-irrigated as need to provide optimum growing conditions. All pots were fertilized one time per week by subirrigating with Peters Peat-Lite Special® fertilizer (20-10-20). Phytotoxicity ratings were obtained 10 days after treatment postemergence applications. All evaluations were made visually on a scale of 0 to 100 where 0 represents no activity and 100 represents complete plant death. Visual assessments of plant injury were made based on growth reduction, discoloration, leaf deformity and necrosis

[2] = test system: sunflower (Helianthus annuus); experiment: Post-emergent Test I herbicidal activity; settings: 3.96 Kg ai/ha
Method: as §1

[3] = test system: Wheat and Barley and test plant species; experiment: Post-emergent Test III, herbicidal activity in wheat and barley (Table 17; visual injury, GR20/GR50/GR80/GR90); settings: 21 d; for Visual Growth Reduction (%) 21 Days After Application, CIRAR / Visual Growth Reduction (%) 21 Days After Application, GALAP / Visual Growth Reduction (%) 21 Days After Application, HORVS / Visual Growth Reduction (%) 21 Days After Application, KCHSC / Visual Growth Reduction (%) 21 Days After Application, LAMPU / Visual Growth Reduction (%) 21 Days After Application, MATCH / Visual Growth Reduction (%) 21 Days After Application, PAPRH / Visual Growth Reduction (%) 21 Days After Application, SASKR / Visual Growth Reduction (%) 21 Days After Application, SINAR / Visual Growth Reduction (%) 21 Days After Application, TRZAS / Visual Growth Reduction (%) 21 Days After Application, VERPE / Visual Growth Reduction (%) 21 Days After Application, VIOTR: post-emergent
Method: Post-emergent Test III. Seeds of the desired test plant species were planted in Sun Gro MetroMix® 306 planting mixture, which typically has a pH of 6.0 to 6.8 and an organic matter content of about 30 percent, in plastic pots with a surface area of 103.2 square centimeters (cm^2). When required to ensure good germination and healthy plants, a fungicide treatment and/or other chemical or physical treatment was applied. The plants were grown for 7-36 days (d) in a greenhouse with an approximate 14 hour (h) photoperiod which was maintained at about 18° C. during the day and 17° C. during the night. Nutrients and water were added on a regular basis and supplemental lighting was provided with overhead metal halide 1000-Watt lamps as necessary. The plants were employed for testing when they reached the second or third true leaf stage.
A weighed amount, determined by the highest rate to be tested, of each test compound was placed in a 25 mL glass vial and was dissolved in 4 mL of a 97:3 v/v mixture of acetone and DMSO to obtain concentrated stock solutions. […] The concentrated stock solutions obtained were diluted with 20 mL of an aqueous mixture containing acetone, water, isopropyl alcohol, DMSO, Agri-Dex crop oil concentrate, and X-77 surfactant in a 48:39:10:1.5:1.5:0.02 v/v ratio to obtain spray solutions containing the highest application rates. Additional application rates were obtained by serial dilution of 12 mL of the high rate solution into a solution containing 2 mL of 97:3 v/v mixture of acetone and DMSO and 10 mL of an aqueous mixture containing acetone, water, isopropyl alcohol, DMSO, Agri-Dex crop oil concentrate, and X-77 surfactant in a 48:39:10:1.5:1.5:0.02 v/v ratio to obtain 1/2×, 1/4×, 1/8× and 1/16× rates of the high rate. Compound requirements are based upon a 12 mL application volume at a rate of 187 liters per hectare (L/ha). Formulated compounds were applied to the plant material with an overhead Mandel track sprayer equipped with 8002E nozzles calibrated to deliver 187 L/ha over an application area of 0.503 square meters at a spray height of 18 inches (43 cm) above the average plant canopy height. Control plants were sprayed in the same manner with the solvent blank.
The treated plants and control plants were placed in a greenhouse as described above and watered by subirrigation to prevent wash-off of the test compounds. After 21 d, the condition of the test plants as compared with that of the untreated plants was determined visually and scored on a scale of 0 to 100 percent where 0 corresponds to no injury and 100 corresponds to complete kill. By applying the well-accepted probit analysis as described by J. Berkson in Journal of the American Statistical […], 48, 565 (1953) and by D. Finney in “Probit Analysis” Cambridge University Press (1952), the above data can be used to calculate GR20, GR50, GR80 and GR90 values, which are defined as growth reduction factors that correspond to the effective dose of herbicide required to kill or control 20 percent, 50 percent, 80 percent or 90 percent, respectively, of a target plant.

COC(=O)c1nc(-c2ccc3ccn(C)c3c2)c(F)c(N)c1Cl [Compound 1.10]
Visual Growth Reduction (%) 10 Days After Application ECHCG [1]: G (0-29)
Visual Growth Reduction (%) 10 Days After Application HELAN [2]: A (95-100)

COC(=O)c1nc(-c2ccc(Cl)c3ccoc23)c(F)c(N)c1Cl [Compound 2.24]
Visual Growth Reduction (%) 21 Days After Application, CIRAR ([3]; CIRAR, 17.5 g ai/ha): D (60-74)
Visual Growth Reduction (%) 21 Days After Application, CIRAR ([3]; CIRAR, 35 g ai/ha): C (75-84)
Visual Growth Reduction (%) 21 Days After Application, CIRAR ([3]; CIRAR, 70 g ai/ha): B (85-94)
GR50, CIRAR ([3]; CIRAR, dose for 50 percent growth reduction, probit analysis): 14 g ai/ha
GR80, CIRAR ([3]; CIRAR, dose for 80 percent growth reduction, probit analysis): 35 g ai/ha
GR90, CIRAR ([3]; CIRAR, dose for 90 percent growth reduction, probit analysis): 57 g ai/ha
Visual Growth Reduction (%) 21 Days After Application, GALAP ([3]; GALAP, 17.5 g ai/ha): D (60-74)
Visual Growth Reduction (%) 21 Days After Application, GALAP ([3]; GALAP, 35 g ai/ha): B (85-94)
Visual Growth Reduction (%) 21 Days After Application, GALAP ([3]; GALAP, 70 g ai/ha): B (85-94)
GR50, GALAP ([3]; GALAP, dose for 50 percent growth reduction, probit analysis): 7 g ai/ha
GR80, GALAP ([3]; GALAP, dose for 80 percent growth reduction, probit analysis): 23 g ai/ha
GR90, GALAP ([3]; GALAP, dose for 90 percent growth reduction, probit analysis): 44 g ai/ha
Visual Growth Reduction (%) 21 Days After Application, HORVS ([3]; HORVS, 17.5 g ai/ha): G (0-29)
Visual Growth Reduction (%) 21 Days After Application, HORVS ([3]; HORVS, 35 g ai/ha): G (0-29)
Visual Growth Reduction (%) 21 Days After Application, HORVS ([3]; HORVS, 70 g ai/ha): G (0-29)
GR20, HORVS ([3]; HORVS, dose for 20 percent growth reduction, probit analysis): 66 g ai/ha
Visual Growth Reduction (%) 21 Days After Application, KCHSC ([3]; KCHSC, 17.5 g ai/ha): D (60-74)
Visual Growth Reduction (%) 21 Days After Application, KCHSC ([3]; KCHSC, 35 g ai/ha): C (75-84)
Visual Growth Reduction (%) 21 Days After Application, KCHSC ([3]; KCHSC, 70 g ai/ha): B (85-94)
GR50, KCHSC ([3]; KCHSC, dose for 50 percent growth reduction, probit analysis): 4 g ai/ha
GR80, KCHSC ([3]; KCHSC, dose for 80 percent growth reduction, probit analysis): 33 g ai/ha
GR90, KCHSC ([3]; KCHSC, dose for 90 percent growth reduction, probit analysis): 103 g ai/ha
Visual Growth Reduction (%) 21 Days After Application, LAMPU ([3]; LAMPU, 17.5 g ai/ha): E (45-59)
Visual Growth Reduction (%) 21 Days After Application, LAMPU ([3]; LAMPU, 35 g ai/ha): D (60-74)
Visual Growth Reduction (%) 21 Days After Application, LAMPU ([3]; LAMPU, 70 g ai/ha): C (75-84)
GR50, LAMPU ([3]; LAMPU, dose for 50 percent growth reduction, probit analysis): 15 g ai/ha
GR80, LAMPU ([3]; LAMPU, dose for 80 percent growth reduction, probit analysis): 93 g ai/ha
GR90, LAMPU ([3]; LAMPU, dose for 90 percent growth reduction, probit analysis): >140 g ai/ha
Visual Growth Reduction (%) 21 Days After Application, MATCH ([3]; MATCH, 17.5 g ai/ha): G (0-29)
Visual Growth Reduction (%) 21 Days After Application, MATCH ([3]; MATCH, 35 g ai/ha): G (0-29)
Visual Growth Reduction (%) 21 Days After Application, MATCH ([3]; MATCH, 70 g ai/ha): G (0-29)
GR50, MATCH ([3]; MATCH, dose for 50 percent growth reduction, probit analysis): 114 g ai/ha
GR80, MATCH ([3]; MATCH, dose for 80 percent growth reduction, probit analysis): >140 g ai/ha
GR90, MATCH ([3]; MATCH, dose for 90 percent growth reduction, probit analysis): >140 g ai/ha
Visual Growth Reduction (%) 21 Days After Application, PAPRH ([3]; PAPRH, 17.5 g ai/ha): D (60-74)
Visual Growth Reduction (%) 21 Days After Application, PAPRH ([3]; PAPRH, 35 g ai/ha): D (60-74)
Visual Growth Reduction (%) 21 Days After Application, PAPRH ([3]; PAPRH, 70 g ai/ha): C (75-84)
GR50, PAPRH ([3]; PAPRH, dose for 50 percent growth reduction, probit analysis): 24 g ai/ha
GR80, PAPRH ([3]; PAPRH, dose for 80 percent growth reduction, probit analysis): 52 g ai/ha
GR90, PAPRH ([3]; PAPRH, dose for 90 percent growth reduction, probit analysis): 77 g ai/ha
Visual Growth Reduction (%) 21 Days After Application, SASKR ([3]; SASKR, 17.5 g ai/ha): D (60-74)
Visual Growth Reduction (%) 21 Days After Application, SASKR ([3]; SASKR, 35 g ai/ha): B (85-94)
Visual Growth Reduction (%) 21 Days After Application, SASKR ([3]; SASKR, 70 g ai/ha): B (85-94)
GR50, SASKR ([3]; SASKR, dose for 50 percent growth reduction, probit analysis): 3 g ai/ha
GR80, SASKR ([3]; SASKR, dose for 80 percent growth reduction, probit analysis): 28 g ai/ha
GR90, SASKR ([3]; SASKR, dose for 90 percent growth reduction, probit analysis): 95 g ai/ha
Visual Growth Reduction (%) 21 Days After Application, SINAR ([3]; SINAR, 17.5 g ai/ha): B (85-94)
Visual Growth Reduction (%) 21 Days After Application, SINAR ([3]; SINAR, 35 g ai/ha): A (95-100)
Visual Growth Reduction (%) 21 Days After Application, SINAR ([3]; SINAR, 70 g ai/ha): A (95-100)
GR50, SINAR ([3]; SINAR, dose for 50 percent growth reduction, probit analysis): 6 g ai/ha
GR80, SINAR ([3]; SINAR, dose for 80 percent growth reduction, probit analysis): 13 g ai/ha
GR90, SINAR ([3]; SINAR, dose for 90 percent growth reduction, probit analysis): 19 g ai/ha
Visual Growth Reduction (%) 21 Days After Application, TRZAS ([3]; TRZAS, 17.5 g ai/ha): G (0-29)
Visual Growth Reduction (%) 21 Days After Application, TRZAS ([3]; TRZAS, 35 g ai/ha): G (0-29)
Visual Growth Reduction (%) 21 Days After Application, TRZAS ([3]; TRZAS, 70 g ai/ha): F (30-44)
GR20, TRZAS ([3]; TRZAS, dose for 20 percent growth reduction, probit analysis): 52 g ai/ha
Visual Growth Reduction (%) 21 Days After Application, VERPE ([3]; VERPE, 17.5 g ai/ha): F (30-44)
Visual Growth Reduction (%) 21 Days After Application, VERPE ([3]; VERPE, 35 g ai/ha): D (60-74)
Visual Growth Reduction (%) 21 Days After Application, VERPE ([3]; VERPE, 70 g ai/ha): C (75-84)
GR50, VERPE ([3]; VERPE, dose for 50 percent growth reduction, probit analysis): 30 g ai/ha
GR80, VERPE ([3]; VERPE, dose for 80 percent growth reduction, probit analysis): 66 g ai/ha
GR90, VERPE ([3]; VERPE, dose for 90 percent growth reduction, probit analysis): 100 g ai/ha
Visual Growth Reduction (%) 21 Days After Application, VIOTR ([3]; VIOTR, 17.5 g ai/ha): E (45-59)
Visual Growth Reduction (%) 21 Days After Application, VIOTR ([3]; VIOTR, 35 g ai/ha): D (60-74)
Visual Growth Reduction (%) 21 Days After Application, VIOTR ([3]; VIOTR, 70 g ai/ha): C (75-84)
GR50, VIOTR ([3]; VIOTR, dose for 50 percent growth reduction, probit analysis): 24 g ai/ha
GR80, VIOTR ([3]; VIOTR, dose for 80 percent growth reduction, probit analysis): 78 g ai/ha
GR90, VIOTR ([3]; VIOTR, dose for 90 percent growth reduction, probit analysis): >140 g ai/ha

— patent US20170050957A1, “4-AMINO-6-(HETEROCYCLIC)PICOLINATES AND 6-AMINO-2-(HETEROCYCLIC)PYRIMIDINE-4-CARBOXYLATES AND THEIR USE AS HERBICIDES” (Dow AgroSciences LLC, priority 2013, published 2017)
